Data taken from the supplement of paper PMC11061612.

Legend:
MK-2206 = compound: NC1(c2ccc(-c3nc4ccn5c(=O)[nH]nc5c4cc3-c3ccccc3)cc2)CCC1 [MK-2206]; settings: max 10 µM
In short: (§1)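 Viability was measured with CellTiter-Glo 2.0 luminescence after 72 hours of dosing at a final DMSO of typically 0.2%, and scaled between blank-well and DMSO-well means. Beforehand, cancer cell lines sat 24 hours at 37°C and 5% CO2 in 1536-well plates in 7.5 μl DMEM/F12 or RPMI with 10% FBS. A non-linear mixed effects model fitted two-parameter logistic curves to the dose responses. The single-agent IC50 comes from these fits.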

AZD2811 = compound: CCN(CCO)CCCOc1ccc2c(Nc3cc(CC(=O)Nc4cccc(F)c4)[nH]n3)ncnc2c1 [AZD2811]; settings: max 1 µM
In short: as §1

AZD5991 = compound: Cc1c2c(nn1C)CSCc1cc(n(C)n1)CSc1cc(c3ccccc3c1)OCCCc1c(C(=O)O)n(C)c3c-2c(Cl)ccc13 [AZD5991]; settings: max 1 µM
In short: as §1

Gefitinib = compound: COc1cc2ncnc(Nc3ccc(F)c(Cl)c3)c2cc1OCCCN1CCOCC1 [Gefitinib]; settings: max 10 µM
In short: as §1

AZD5153 = compound: COc1nnc2ccc(N3CCC(c4ccc(OCCN5CCN(C)C(=O)[C@H]5C)cc4)CC3)nn12 [AZD5153]; settings: max 1 µM
In short: as §1

SN-38 = compound: CCc1c2c(nc3ccc(O)cc13)-c1cc3c(c(=O)n1C2)COC(=O)[C@]3(O)CC [SN-38]; settings: max 0.3 µM
In short: as §1

Lapatinib = compound: CS(=O)(=O)CCNCc1ccc(-c2ccc3ncnc(Nc4ccc(OCc5cccc(F)c5)c(Cl)c4)c3c2)o1 [Lapatinib]; settings: max 10 µM
In short: as §1

Prexasertib = compound: COc1cccc(OCCCN)c1-c1cc(Nc2cnc(C#N)cn2)n[nH]1 [Prexasertib]; settings: max 1 µM
In short: as §1

Doxorubicin = compound: COc1cccc2c1C(=O)c1c(O)c3c(c(O)c1C2=O)C[C@@](O)(C(=O)CO)C[C@@H]3O[C@H]1C[C@H](N)[C@H](O)[C@H](C)O1 [Doxorubicin]; settings: max 1 µM
In short: as §1

AZD7648 = compound: Cc1cc2ncnn2cc1Nc1ncc2c(n1)n(C1CCOCC1)c(=O)n2C [AZD7648]; settings: max 10 µM
In short: as §1

[1] = compound: O=C(Nc1ccc2[nH]nc(-c3ccncc3)c2c1)[C@@H]1CCN(CC(=O)N2CCN(c3ccc(-c4ncccn4)cc3)CC2)C1; settings: max 5 µM
In short: as §1

SRA737 = compound: N#Cc1cnc(Nc2cc(NC[C@H]3CNCCO3)c(C(F)(F)F)cn2)cn1 [SRA737]; settings: max 10 µM
In short: as §1

Gemcitabine = compound: Nc1ccn([C@@H]2O[C@H](CO)[C@@H](O)C2(F)F)c(=O)n1 [Gemcitabine]; settings: max 0.3 µM
In short: as §1

5-Fluorouracil = compound: O=c1[nH]cc(F)c(=O)[nH]1 [5-Fluorouracil]; settings: max 20 µM
In short: as §1

Venetoclax = compound: CC1(C)CCC(CN2CCN(c3ccc(C(=O)NS(=O)(=O)c4ccc(NCC5CCOCC5)c([N+](=O)[O-])c4)c(Oc4cnc5[nH]ccc5c4)c3)CC2)=C(c2ccc(Cl)cc2)C1 [Venetoclax]; settings: max 1 µM
In short: as §1

Dasatinib = compound: CC1=C(C(=CC=C1)Cl)NC(=O)C2=CN=C(S2)NC3=CC(=NC(=N3)C)N4CCN(CC4)CCO [Dasatinib]; settings: max 2 µM
In short: as §1

Crizotinib = compound: C[C@@H](Oc1cc(-c2cnn(C3CCNCC3)c2)cnc1N)c1c(Cl)ccc(F)c1Cl [Crizotinib]; settings: max 10 µM
In short: as §1

Paclitaxel = compound: CC(=O)O[C@H]1C(=O)[C@@]2(C)[C@H]([C@H](OC(=O)c3ccccc3)[C@]3(O)C[C@H](OC(=O)[C@H](O)[C@@H](NC(=O)c4ccccc4)c4ccccc4)C(C)=C1C3(C)C)[C@]1(OC(C)=O)CO[C@@H]1C[C@@H]2O [Paclitaxel]; settings: max 3 µM
In short: as §1

AZD6738 = compound: C[C@@H]1COCCN1C2=NC(=NC(=C2)C3(CC3)[S@](=N)(=O)C)C4=C5C=CNC5=NC=C4 [AZD6738]; settings: max 10 µM
In short: as §1

Taselisib = compound: Cc1nc(-c2cn3c(n2)-c2ccc(-c4cnn(C(C)(C)C(N)=O)c4)cc2OCC3)n(C(C)C)n1 [Taselisib]; settings: max 10 µM
In short: as §1

Etoposide = compound: COc1cc([C@@H]2c3cc4c(cc3[C@@H](O[C@@H]3O[C@@H]5CO[C@@H](C)O[C@H]5[C@H](O)[C@H]3O)[C@H]3COC(=O)[C@H]23)OCO4)cc(OC)c1O [Etoposide]; settings: max 10 µM
In short: as §1

AZD4320 = compound: CN(CC[C@H](CSC1=CC=CC=C1)NC2=C(C=C(C=C2)S(=O)(=O)NC(=O)C3=CC=C(C=C3)N4CCC(CC4)[C@H](C5=CC=CC=C5C6=CC=C(C=C6)Cl)O)S(=O)(=O)C(F)(F)F)CCO [AZD4320]; settings: max 1 µM
In short: as §1

AZD0156 = compound: CN(C)CCCOc1ccc(-c2ccc3ncc4c(c3c2)n(C2CCOCC2)c(=O)n4C)cn1 [AZD0156]; settings: max 3 µM
In short: as §1

Savolitinib = compound: C[C@@H](c1ccc2nccn2c1)n1nnc2ncc(-c3cnn(C)c3)nc21 [Savolitinib]; settings: max 1 µM
In short: as §1

Selumetinib = compound: Cn1cnc2c(F)c(Nc3ccc(Br)cc3Cl)c(C(=O)NOCCO)cc21 [Selumetinib]; settings: max 10 µM
In short: as §1

AZD5363 = compound: C1CN(CCC1(C(=O)N[C@@H](CCO)C2=CC=C(C=C2)Cl)N)C3=NC=NC4=C3C=CN4 [AZD5363]; settings: max 10 µM
In short: as §1

Alisertib = compound: COc1cc(Nc2ncc3c(n2)-c2ccc(Cl)cc2C(c2c(F)cccc2OC)=NC3)ccc1C(=O)O [Alisertib]; settings: max 10 µM
In short: as §1

SG3199 = compound: CC1=CN2[C@@H](C1)C=NC3=CC(=C(C=C3C2=O)OC)OCCCCCOC4=C(C=C5C(=C4)N=C[C@@H]6CC(=CN6C5=O)C)OC [SG3199]; settings: max 0.001 µM
In short: as §1

AZD1390 = compound: CC(C)n1c(=O)n(C)c2cnc3cc(F)c(-c4ccc(OCCCN5CCCCC5)nc4)cc3c21 [AZD1390]; settings: max 0.3 µM
In short: as §1

Trametinib = compound: CC(=O)Nc1cccc(-n2c(=O)n(C3CC3)c(=O)c3c(Nc4ccc(I)cc4F)n(C)c(=O)c(C)c32)c1 [Trametinib]; settings: max 1 µM
In short: as §1

Palbociclib = compound: CC(=O)c1c(C)c2cnc(Nc3ccc(N4CCNCC4)cn3)nc2n(C2CCCC2)c1=O [Palbociclib]; settings: max 10 µM
In short: as §1

AZD8186 = compound: C[C@@H](Nc1cc(F)cc(F)c1)c1cc(C(=O)N(C)C)cc2c(=O)cc(N3CCOCC3)oc12 [AZD8186]; settings: max 10 µM
In short: as §1

Carboplatin = compound: C1CC(C1)(C(=O)[O-])C(=O)[O-].N.N.[Pt+2] [Carboplatin]; settings: max 10 µM
In short: as §1

AZD1775 = compound: C=CCn1c(=O)c2cnc(Nc3ccc(N4CCN(C)CC4)cc3)nc2n1-c1cccc(C(C)(C)O)n1 [AZD1775]; settings: max 3 µM
In short: as §1

Olaparib = compound: O=C(c1cc(Cc2n[nH]c(=O)c3ccccc23)ccc1F)N1CCN(C(=O)C2CC2)CC1 [Olaparib]; settings: max 10 µM
In short: as §1

Cell Line | IC50, cell viability 72 h (MK-2206) | IC50, cell viability 72 h (AZD2811) | IC50, cell viability 72 h (AZD5991) | IC50, cell viability 72 h (Gefitinib) | IC50, cell viability 72 h (AZD5153) | IC50, cell viability 72 h (SN-38) | IC50, cell viability 72 h (Lapatinib) | IC50, cell viability 72 h (Prexasertib) | IC50, cell viability 72 h (Doxorubicin) | IC50, cell viability 72 h (AZD7648) | IC50, cell viability 72 h [1] | IC50, cell viability 72 h (SRA737) | IC50, cell viability 72 h (Gemcitabine) | IC50, cell viability 72 h (5-Fluorouracil) | IC50, cell viability 72 h (Venetoclax) | IC50, cell viability 72 h (Dasatinib) | IC50, cell viability 72 h (Crizotinib) | IC50, cell viability 72 h (Paclitaxel) | IC50, cell viability 72 h (AZD6738) | IC50, cell viability 72 h (Taselisib) | IC50, cell viability 72 h (Etoposide) | IC50, cell viability 72 h (AZD4320) | IC50, cell viability 72 h (AZD0156) | IC50, cell viability 72 h (Savolitinib) | IC50, cell viability 72 h (Selumetinib) | IC50, cell viability 72 h (AZD5363) | IC50, cell viability 72 h (Alisertib) | IC50, cell viability 72 h (SG3199) | IC50, cell viability 72 h (AZD1390) | IC50, cell viability 72 h (Trametinib) | IC50, cell viability 72 h (Palbociclib) | IC50, cell viability 72 h (AZD8186) | IC50, cell viability 72 h (Carboplatin) | IC50, cell viability 72 h (AZD1775) | IC50, cell viability 72 h (Olaparib)
BICR22 (Oral Cavity Carcinoma) | > 10 µM | > 1 µM | > 1 µM | > 10 µM | > 1 µM | 0.00659 µM | > 10 µM | 0.0545 µM | 0.158 µM | > 10 µM | > 5 µM | > 10 µM | 0.0121 µM | 1.85 µM | > 1 µM | > 2 µM | > 10 µM | < 0.003 µM | 3.41 µM | 0.928 µM | 3.15 µM | > 1 µM | > 3 µM | > 1 µM | > 10 µM | > 10 µM | 6.99 µM | > 0.001 µM | > 0.3 µM | > 1 µM | > 10 µM | > 10 µM | > 10 µM | 1.85 µM | > 10 µM
CAPAN-2 (Pancreatic Carcinoma) | > 10 µM | > 1 µM | > 1 µM | > 10 µM | > 1 µM | > 0.3 µM | > 10 µM | 0.646 µM | > 1 µM | > 10 µM | > 5 µM | > 10 µM | > 0.3 µM | > 20 µM | > 1 µM | 0.21 µM | > 10 µM | > 3 µM | > 10 µM | > 10 µM | > 10 µM | > 1 µM | > 3 µM | > 1 µM | > 10 µM | > 10 µM | > 10 µM | > 0.001 µM | > 0.3 µM | > 1 µM | > 10 µM | > 10 µM | > 10 µM | 2.7 µM | > 10 µM
FU97 (Gastric Carcinoma) | > 10 µM | > 1 µM | > 1 µM | > 10 µM | 0.288 µM | > 0.3 µM | > 10 µM | > 1 µM | > 1 µM | > 10 µM | > 5 µM | > 10 µM | > 0.3 µM | > 20 µM | > 1 µM | > 2 µM | > 10 µM | > 3 µM | > 10 µM | > 10 µM | > 10 µM | > 1 µM | > 3 µM | > 1 µM | > 10 µM | > 10 µM | > 10 µM | > 0.001 µM | > 0.3 µM | – | > 10 µM | > 10 µM | > 10 µM | > 3 µM | > 10 µM
